Measured values published in US12421206B2, “Aryl-n-aryl derivatives for treating a RNA virus infection” (ABIVAX, priority 2018, dated 2025).

Key:
[1] = test system: RSV A2; assay: RSV inhibition (cytopathic effect inhibition) using Viral ToxGlo assay in HEp-2 cells; type: cell-based; details: human respiratory syncytial virus, RSV A2, MOI 0.5, HEp-2 cells, 72 h p.i.
Description: Protocol for Screening Antiviral Compounds for RSV Inhibition and Cytotoxicity Using Viral ToxGlo Assay
HEp-2 cells were maintained in Eagle's minimum essential medium (EMEM) with Earle's BSS adjusted to contain 2 mM L-glutamine, 10% fetal bovine serum, 100 U/ml penicillin and 100 μg/ml streptomycin. For the purposes of the screening assay they were grown to 90% confluency, trypsinized and recovered. The trypsin was neutralised with cell culture media and cells were centrifuged at 150×g for 5 minutes before discarding the supernatant and resuspending cell pellet in assay media (EMEM with Earle's BSS adjusted to contain 2 mM L-glutamine, 2% fetal bovine serum and 100 U/ml penicillin and 100 μg/ml streptomycin). The cells were seeded into white clear-bottomed cell culture plates at a density of 1.5×10^4 cells/well in 50 μl and 4×10^3 cells/well in 25 μl for 96 well plates and 384 well plates respectively. For the media/background control column assay media only was added. Cell plates were placed in a humid chamber and incubated overnight at 37° C./5% CO2. After overnight incubation cells were checked for confluency and healthy appearance.
Test articles were made up at 10× test concentration in a maximum DMSO concentration of 10% (final assay concentration maximal 1% DMSO) and added to the cell plates in volumes of 10 μl for 96 well plates and 5 μl for 384 well plates. For cell control and virus control wells the test article solvent only was added. Virus or assay media for cytotoxicity test wells and media/cell control wells was added immediately after test articles at an MOI of 0.5, 40 or 20 μl for 96 and 384 well plates respectively. Virus suspension was prepared by thawing RSV A2 frozen stocks and diluting to the required concentration of plaque forming units in assay media on ice.
(§1) Cell plates were further incubated inside a humid chamber for 72 h p.i at 37° C./5% CO2. After the incubation period cells were observed under the microscope to check for characteristic cytopathic effect in virus control wells and healthy cells in the cell control wells. After plates were adjusted to room temperature 20/40 μl Viral ToxGlo (Promega) was added to each well of the 384/96 well cell plates. Plates were incubated at room temperature, protected from light on a plate rocker for 20 minutes before measuring the luminescence on a spectrophotometer (Biotek Synergy HTX).
RSV inhibition was calculated as percentage of cytopathic effect inhibition relative to the virus control and cytotoxicity as percentage of cell survival relative to cell control wells. This allowed EC50 values to be calculated for each test article where a virus inhibition or cytotoxic dose response was identified.

[2] = test system: DENV-2 strain 16681; assay: DENV-2 inhibition (cytopathic effect inhibition) using Viral ToxGlo assay in A549 cells; type: cell-based, Dengue 2 virus; details: Dengue virus, DENV2, 120 h, compounds at 10 μM, MOI 0.5, 5 days p.i., read-out: % DENV-2 Inhibition Mean (n = 3)
Description: Protocol for Screening Antiviral Compounds for DENV-2 Inhibition and Cytotoxicity Using Viral ToxGlo Assay
A549 cells were maintained in Dulbecco's Modified Eagle Medium (DMEM) supplemented with 10% fetal bovine serum, 100 U/ml penicillin and 100 μg/ml streptomycin. For the purposes of the screening assay they were grown to 90% confluency, trypsinized and recovered. The trypsin was neutralised with cell culture media and cells were centrifuged at 150×g for 5 minutes before discarding the supernatant and resuspending cell pellet in assay media (DMEM supplemented with 2% fetal bovine serum and 100 U/ml penicillin and 100 μg/ml streptomycin). The cells were seeded into 96-well white clear-bottomed cell culture plates at a density of 1.0×10^4 cells/well in 50 μl. For the media/background control column assay media only was added. Cell plates were placed in a humid chamber and incubated overnight at 37° C./5% CO2. After overnight incubation cells were checked for confluency and healthy appearance.
Test compounds were prepared at a final concentration of 10 μM in a maximum DMSO concentration of 1% (final assay concentration maximal 0.1% DMSO) and added to the cell plates in volumes of 10 μl. For cell control and virus control wells the test article solvent only was added. As a positive inhibition control, 7-Deaza-2′-C-methyladenosine was added at 100 μM in 3 wells. Virus (DENV-2 strain 16681) or assay media for cytotoxicity test wells and media/cell control wells was added immediately after test articles at an MOI of 0.5, 40 for 96 well plates respectively. Virus suspension was prepared by thawing DENV-2 frozen stocks and diluting to the required concentration of plaque forming units in assay media.
as §1, with “5 days” for “72 h”, “20” for “20/40”, “96-well” for “384/96 well”, “temperature” for “temperature, protected from light on a plate rocker”, “5” for “20”, “(Envision, PerkinElmer).” for “(Biotek Synergy HTX).”
DENV-2 inhibition was calculated as percentage of cytopathic effect inhibition relative to the virus control and cytotoxicity as percentage of cell survival relative to cell control wells.

In the case of `CC(C)CCNC(=O)c1cccc(Nc2ccc(OCc3ccccn3)cc2C2CC2)c1` [Compound 61, 3-((2-cyclopropyl-4-(pyridin-2-ylmethoxy)phenyl)amino)-N-isopentylbenzamide], the EC50 [1] is reported as 54 nM and the inhibition at 10 µM [2] is reported as 55%.
Work on `O=C(NCC1CCCC1)c1cccc(Nc2ccc(OCc3ccccn3)cc2)c1` [Compound 62, N-(cyclopentylmethyl)-3-((4-(pyridin-2-ylmethoxy)phenyl)amino)benzamide] yielded an inhibition at 10 µM [2] of 55%.
For `O=C(NCCC(F)(F)F)c1cccc(Nc2ccc(OCc3ccccn3)cc2)c1` [Compound 65, 3-((4-(pyridin-2-ylmethoxy)phenyl)amino)-N-(3,3,3-trifluoropropyl)benzamide], the inhibition at 10 µM [2] was 77%.
For `O=C(NCCC1CCCC1)c1cccc(Nc2ccc(OCc3ccccc3)cc2C2CC2)c1` [Compound 82, N-(2-(cyclopentyl)ethyl)-3-((2-cyclopropyl-4-(phenylmethoxy)phenyl)amino)benzamide], the EC50 [1] was 4 nM and the inhibition at 10 µM [2] was 64%.
`O=C(CCC1CCCCC1)Nc1cccc(Nc2ccc(OCc3ccccc3)cc2C(F)(F)F)c1` [Compound 98, N-(3-{[4-(benzyloxy)-2-(trifluoromethyl)phenyl]amino}phenyl)-3-cyclohexylpropanamide] was tested, and the EC50 [1] was 12 nM and the inhibition at 10 µM [2] was 60%.
`CC(C)c1cc(OCc2ccccc2)ccc1Nc1cccc(OCCCC2CCCCC2)c1` [Compound 119, 4-(benzyloxy)-N-[3-(3-cyclohexylpropoxy)phenyl]-2-(propan-2-yl)aniline] was tested, and the EC50 [1] was 107 nM and the inhibition at 10 µM [2] was 104%.
`Cc1cc(OCc2ccc(F)cc2)ccc1Nc1ccc(F)c(NC(=O)CCC2CCCCC2)c1` [Compound 121, 3-cyclohexyl-N-[2-fluoro-5-({4-[(4-fluorophenyl)methoxy]-2-methylphenyl}amino)phenyl]propanamide] was tested, and the EC50 [1] was 116 nM and the inhibition at 10 µM [2] was 59%.
Compound `Cc1cc(OCc2ccccc2)ccc1Nc1cccc(NC(=O)CCC2CCCCC2)c1` [Compound 132, N-(3-{[4-(benzyloxy)-2-methylphenyl]amino}phenyl)-3-cyclohexylpropanamide] has an EC50 [1] of 228 nM and an inhibition at 10 µM [2] of 71%.
In the case of `Cc1cc(OCc2ccc(F)cc2)ccc1Nc1cccc(NC(=O)CCC2CCCCC2)c1` [Compound 140, 3-cyclohexyl-N-[3-({4-[(4-fluorophenyl)methoxy]-2-methylphenyl}amino)phenyl]propanamide], the EC50 [1] is reported as 349 nM and the inhibition at 10 µM [2] is reported as 74%.
In the case of `c1ccc(COc2ccc(Nc3cccc(SCCCC4CCCCC4)c3)c(C3CC3)c2)cc1` [Compound 149, 4-(benzyloxy)-N-{3-[(3-cyclohexylpropyl)sulfanyl]phenyl}-2-cyclopropylaniline], the EC50 [1] is reported as 555 nM.
Compound `O=C(CCC1CCCCC1)Nc1cccc(Nc2ccc(OCc3ccccc3)cc2F)c1` [Compound 150, N-(3-{[4-(benzyloxy)-2-fluorophenyl]amino}phenyl)-3-cyclohexylpropanamide] has an EC50 [1] of 597 nM and an inhibition at 10 µM [2] of 78%.
In the case of `c1ccc(COc2ccc(Nc3cccc(OC4COC4)c3)c(C3CC3)c2)nc1` [Compound 151, 2-cyclopropyl-N-[3-(oxetan-3-yloxy)phenyl]-4-[(pyridin-2-yl)methoxy]aniline], the EC50 [1] is reported as 671 nM and the inhibition at 10 µM [2] is reported as 63%.
`Cc1cc(OCc2ncccn2)ccc1Nc1cccc(OCCCC2CCCCC2)c1` [Compound 152, N-[3-(3-cyclohexylpropoxy)phenyl]-2-methyl-4-[(pyrimidin-2-yl)methoxy]aniline] showed an EC50 [1] of 802 nM.
Compound `Cc1cc(OCc2ccc(OC(F)(F)F)cc2)ccc1Nc1cccc(NC(=O)CCC2CCCCC2)c1` [Compound 153, 3-cyclohexyl-N-{3-[(2-methyl-4-{[4-(trifluoromethoxy)phenyl]methoxy}phenyl)amino]phenyl}propanamide] has an EC50 [1] of 809 nM.
In the case of `c1ccc(COc2ccc(Nc3ccccc3OCCCC3CCCCC3)c(C3CC3)c2)cc1` [Compound 154, 4-(benzyloxy)-N-[2-(3-cyclohexylpropoxy)phenyl]-2-cyclopropylaniline], the EC50 [1] is reported as 810 nM.
Work on `OCC(O)(CCC1CCCCC1)c1cccc(Nc2ccc(OCc3ccccc3)cc2C2CC2)c1` (centres unmarked) [Compound 155, 2-(3-{[4-(benzyloxy)-2-cyclopropylphenyl]amino}phenyl)-4-cyclohexylbutane-1,2-diol] yielded an EC50 [1] of 1030 nM.
`CN(c1cccc(OCCCC2CCCCC2)c1)c1ccc(OCc2ccccn2)cc1C1CC1` [Compound 156, N-[3-(3-cyclohexylpropoxy)phenyl]-2-cyclopropyl-N-methyl-4-[(pyridin-2-yl)methoxy]aniline] was tested, and the EC50 [1] was 1060 nM and the inhibition at 10 µM [2] was 82%.
With `c1ccc(COc2ccc(Nc3cccc(OCCCC4CCCCC4)c3)c(C3CCOCC3)c2)cc1` [Compound 164, 4-(benzyloxy)-N-[3-(3-cyclohexylpropoxy)phenyl]-2-(oxan-4-yl)aniline] the EC50 [1] was 1320 nM.
`C1=C(c2cc(OCc3ccccc3)ccc2Nc2cccc(OCCCC3CCCCC3)c2)CCOC1` [Compound 165, 4-(benzyloxy)-N-[3-(3-cyclohexylpropoxy)phenyl]-2-(3,6-dihydro-2H-pyran-4-yl)aniline] gave an EC50 [1] of 2360 nM.
For `c1ccc(COc2ccc(Nc3cncc(OCCCC4CCCCC4)c3)c(C3CC3)c2)nc1` [Compound 166, 5-(3-cyclohexylpropoxy)-N-{2-cyclopropyl-4-[(pyridin-2-yl)methoxy]phenyl}pyridin-3-amine], the EC50 [1] was 2490 nM.
With `O=C(CCC1CCCCC1)Nc1cccc(Nc2ccc(OCc3ccc(C(F)(F)F)cc3)cc2C2CC2)c1` [Compound 169, 3-cyclohexyl-N-{3-[(2-cyclopropyl-4-{[4-(trifluoromethyl)phenyl]methoxy}phenyl)amino]phenyl}propanamide] the inhibition at 10 µM [2] was 59%.
In the case of `Cc1cc(OCc2ccccc2)ccc1Nc1cccc(OCC2CCCC2)c1` [Compound 175, 4-(benzyloxy)-N-[3-(cyclopentylmethoxy)phenyl]-2-methylaniline], the inhibition at 10 µM [2] is reported as 60%.
`Cc1cc(OCc2cncnc2)ccc1Nc1cccc(OCCCC2CCCCC2)c1` [Compound 176, N-[3-(3-cyclohexylpropoxy)phenyl]-2-methyl-4-[(pyrimidin-5-yl)methoxy]aniline] was tested, and the inhibition at 10 µM [2] was 85%.
Compound `c1ccc(COc2ccc(Nc3cccc(-c4cnco4)c3)c(C3CC3)c2)nc1` [Compound 179, 2-cyclopropyl-N-[3-(1,3-oxazol-5-yl)phenyl]-4-[(pyridin-2-yl)methoxy]aniline] has an EC50 [1] of 721 nM.
`Cc1cc(OCc2ccccc2)ccc1Nc1cccc(OCC(=O)O)c1` [Compound 192, 2-(3-{[4-(benzyloxy)-2-methylphenyl]amino}phenoxy)acetic acid] was tested, and the inhibition at 10 µM [2] was 66%.
